We go through one molecule from US5328913A, “Minoxidil analogs as inhibitors of cell proliferation and lysyl hydroxylase” (priority 1992, dated 1994).

Data set [1] deals with non-proliferating fibroblasts. The experiment in a line: Cytotoxicity to non-proliferating fibroblasts (cell number per dish). It is filed as cell-based. As to conditions: 5 mM, 72 hr. The source says: Certain aspects of the present invention are described in greater detail in the non-limiting Examples that follow. (See also Murad et al, Arch. Biochem. Biophys. 292:234 (1992)).

In data set [2] the test system is lysyl hydroxylase. Description: Lysyl hydroxylase activity in extracts of treated human skin fibroblasts (Example 1, tritium-release assay). It is filed as cell-based. The following applies: for Lysyl hydroxylase activity (%): 1% ethanol. The procedure: (§1) Cultures of human skin fibroblasts grown to confluence were incubated for 72 h in medium supplemented with 1% ethanol containing various concentrations of minoxidil or deoxyminoxidil as indicated. Cells were then harvested, and the enzyme activities in extracts of these cells were measured by tritium-release assays (Murad and Pinnell, J. Biol. Chem. 262:11,973 (1987)). The results are expressed as percentages of zero-concentration values.
(§2) Cultures of human skin fibroblasts grown to confluence were incubated for 72 h in medium supplemented with 1% ethanol containing various concentrations of minoxidil or with 1% acetone containing various concentrations of minoxidil sulfate, as indicated. Cells were then harvested, and the enzyme activities in extracts of these cells were measured by tritium release assays (Murad and Pinnell, J. Biol. Chem. 262:11,973 (1987)). The results are expressed as percentages of zero-concentration values.
(§3) Skin fibroblast cultures derived from an apparently normal child (GM05659) were obtained from the Institute for Medical Research, Camden, N.J. The cells were subcultured by trypsinization and used before 25 population doublings. Typically, 4×10^5 cells were seeded onto 100-mm (diameter) plastic petri dishes and allowed to grow in 10 ml of Dulbecco's modified Eagle's minimum essential medium containing 5.6 mM glucose, buffered in pH 7.4 with 24 mM sodium biocarbonate/25 mM Hepes and supplemented with 20% (v/v) calf serum which had been inactivated for 30 min at 56° C. The cells were incubated at 37° C. in a humidified atmosphere of 5% CO2 plus 95% air.
(§4) After a week, the medium was replaced with medium supplemented with 0.5% heat-inactivated diaylzed calf serum, and the incubation was continued for 72 h in the presence of minoxidil or one of its structural analogs. The compounds were dissolved in 95% ethanol, except minoxidil sulfate which was dissolved in acetone; the final solvent concentration was 1% (v/v). During the last 3 h of incubation, cells received 100 μM Na L-ascorbate to ensure complete hydroxylation of the polypeptide precursors of precollagen (Murad et al, J. Invest. Dermatol. 75:404 (1980)).
The medium was then removed and the cells were washed twice with a solution containing 0.14 M NaCl, 5 mM KCl, 0.3 mM Na2 PO4, and 0.4 mM KH2 PO4, adjusted to pH 7.4. The cells were detached from the plates with a solution containing 0.05% trypsin, 0.54 mM EDTA, 5.5mM glucose, 6.90mM NaHCO3, […], and 5 mM KCl. The trypsinization was terminated with 2 vol of 20% serum-supplemented medium, and the cell number in an aliquot of the suspension was determined using a Coulter counter.
The detached cells were collected by centrifugation at 500g for 6 min at 4° C. washed twice by suspending in phosphate-buffered NaCl/KCl as above, and then centrifuged. The cell pellet was suspended in a medium (1 ml/5×10^6 cells) containing 0.2 M NaCl, 0.1 M glycine, 50 μM dithiothreitol, 20 mM Tris-HCl, buffer (pH 7.5), 0.1% Triton X-100, and 0.01% soybean trypsin inhibitor. The suspension was sonicated for 30 s using a Branson sonifier cell disrupter. The lysate was centrifuged at 27,000g for 1 h at 4° C., and the resulting supernatant was used for prolyl and lysyl hydroxylase assays (Murad and Pinnell, J. Biol. Chem. 262:11, 973 (1987)). The enzyme activities are based on a unit of soluble cell protein.
(§5) The protein content of cell extracts was determined by a dye-binding technique using Bio-Rad reagent and protein standard (Bradford, Anal. Biochem. 72:248 (1976)).
Note: Cultures of human skin fibroblasts grown to confluence were
incubated for 72 h in medium supplemented with 1% ethanol containing 1 mM
of the indicated compounds. Cells were then harvested, and the enzyme
activity in extracts of these cells was measured by a tritiumrelease
incubated for 72 h in medium supplemented with 1% ethanol containing 1 nM

In data set [3] the test system is Lysyl Hydroxylations in Human Skin Fibroblasts. Description: Hydroxylation of lysine residues in type I procollagen (Hyl/Lys). As to conditions: 0.3 M, 72 hr. The class given is cell-based.
Data set [4] relates to lysyl hydroxylase. Description: Lysyl hydroxylase activity in extracts of treated human skin fibroblasts (Example 1, tritium-release assay). The class given is cell-based. As to conditions: 0.1 mM; dissolved in HCl; final concentration 0.0012 N; 72 h (Table II footnote a).
In data set [5] the test system is lysyl hydroxylase. As to conditions: Murad and Pinnell 1987; cited from earlier work.
Data set [6] concerns prolyl hydroxylase. Description: Prolyl hydroxylase activity in extracts of treated human skin fibroblasts (Example 1, tritium-release assay). The class given is cell-based. As to conditions: cultured fibroblasts, 72 h, Example 1. The protocol:
as §1, §2, §3, §4
The medium was then removed and the cells were washed twice with a solution containing 0.14 M NaCl, 5 mM KCl, 0.3 mM Na2 PO4, and 0.4 mM KH2 PO4, adjusted to pH 7.4. […] The trypsinization was terminated with 2 vol of 20% serum-supplemented medium, and the cell number in an aliquot of the suspension was determined using a Coulter counter. […]
as §5

As for `Nc1cc(N2CCCCC2)nc(N)[n+]1[O-]` [Minoxidil], the “10^-6 × No. of Cells/Dish” value in data set [1] is listed as 0.49 10^-6 × No. of Cells/Dish. For the same molecule, the “Lysyl hydroxylase activity (%)” value in data set [2] (1 nM, 72 h, % of ethanol-treated controls (Table II)) is given as 19-39%; in data set [2] (1 mM, 72 h, % of solvent-treated controls (Table I)) it was 28%; in data set [4], 45%. For the same molecule, in data set [2] (72 h, 1 mM (Table I text)), the “decrease of the level of lysyl hydroxylase activity” value was 72%. In addition, in data set [2] (cultured fibroblasts, 72 h (FIG. 2), read-out: concentration required for 50% inhibition (lysyl hydroxylase)), the IC50 is 118 µM. The Hyl/Lys in data set [3] (type I procollagen chains isolated by gel electrophoresis, mean ± range (Table IV)) stood at 0.08 ± 0.02; in data set [3] (type I procollagen isolated by column chromatography (Table IV)), 0.17. Besides, the “effect on lysyl hydroxylase in cultured fibroblasts (in words)” value in data set [5] is listed as “selectively decreased the activity of lysyl hydroxylase”. Besides, in data set [6], the “effect on prolyl hydroxylase activity (in words)” value is reported as “no significant effect on prolyl hydroxylase activity”.
